Experimental data taken from patent US7759397B2, “6-amino(aza)indane compounds suitable for treating disorders that respond to modulation of the dopamine D3 receptor” (Abbott GmbH & Co. KG, priority 2004, dated 2010).

Experiments:
[1] = molecular target: T1, human dopamine D3 receptors (Homo sapiens, UniProt P35462); assay: Dopamine D3 receptor binding, displacement of [125I]-iodosulpride; settings: ratio of receptor binding constants D2 over D3
T1 construct: expressed in transfected cells
Protocol: (§1) The substance to be tested was either dissolved in methanol/Chremophor® (BASF-AG) or in dimethyl sulfoxide and then diluted with water to the desired concentration.
(§2) Each assay mixture was run in triplicate.
The incubation buffer contained 50 mM tris, 120 mM NaCl, 5 mM KCl, 2 mM CaCl2, 2 mM MgCl2 and 0.1% bovine serum albumin, 10 μM […] and 0.1% ascorbic acid (prepared fresh daily). The buffer was adjusted to pH 7.4 with HCl. Dopamine D2L receptor:
(§3) After having been incubated at 25° C. for 60 minutes, the assay mixtures were filtered through a Whatman GF/B glass fiber filter under vacuum using a cell collecting device. The filters were transferred to scintillation viols using a filter transfer system. After 4 ml of Ultima Gold® (Packard) have been added, the samples were shaken for one hour and the radioactivity was then counted in a Beta-Counter (Packard, Tricarb 2000 or 2200CA). The cpm values were converted into dpm using a standard quench series and the program belonging to the instrument.
(§4) The inhibition curves were analyzed by means of iterative nonlinear regression analysis using the Statistical Analysis System (SAS) which is similar to the “LIGAND” program described by Munson and Rodbard.

[2] = molecular target: T1, human dopamine D3 receptors; assay: as above; settings: membranes of HEK-293 cells stably expressing human D3; 0.1 nM [125I]-iodosulpride; 25° C., 60 minutes; read-out: Ki(D3)* receptor binding constant
[3] = molecular target: T2, human dopamine D2L receptors (long isoform) (Homo sapiens, UniProt P14416); assay: Dopamine D2L receptor binding, displacement of [125I] iodospiperone; settings: membranes of HEK-293 cells stably expressing human D2L; 0.01 nM [125I] iodospiperone; 25° C., 60 minutes; read-out: Ki(D2)* receptor binding constant
T2 construct: expressed in transfected cells
Protocol: as §1, §2
The incubation buffer contained 50 mM tris, 120 mM NaCl, 5 mM KCl, 2 mM CaCl2, 2 mM MgCl2 and 0.1% bovine serum albumin. The buffer was adjusted to pH 7.4 with HCl.
as §3, §4

T1 sequence (P35462 whole entry): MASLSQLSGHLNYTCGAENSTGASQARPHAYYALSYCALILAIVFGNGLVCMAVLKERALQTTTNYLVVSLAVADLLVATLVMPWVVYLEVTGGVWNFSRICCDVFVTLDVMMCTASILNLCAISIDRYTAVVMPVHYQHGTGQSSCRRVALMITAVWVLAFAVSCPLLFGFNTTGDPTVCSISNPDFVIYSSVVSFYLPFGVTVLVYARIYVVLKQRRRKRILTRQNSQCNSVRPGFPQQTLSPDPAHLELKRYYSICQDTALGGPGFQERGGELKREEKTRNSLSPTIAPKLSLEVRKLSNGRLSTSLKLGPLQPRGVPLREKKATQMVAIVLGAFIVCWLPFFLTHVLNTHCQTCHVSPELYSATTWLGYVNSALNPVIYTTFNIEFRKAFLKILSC
T2 sequence (P14416 whole entry, canonical isoform): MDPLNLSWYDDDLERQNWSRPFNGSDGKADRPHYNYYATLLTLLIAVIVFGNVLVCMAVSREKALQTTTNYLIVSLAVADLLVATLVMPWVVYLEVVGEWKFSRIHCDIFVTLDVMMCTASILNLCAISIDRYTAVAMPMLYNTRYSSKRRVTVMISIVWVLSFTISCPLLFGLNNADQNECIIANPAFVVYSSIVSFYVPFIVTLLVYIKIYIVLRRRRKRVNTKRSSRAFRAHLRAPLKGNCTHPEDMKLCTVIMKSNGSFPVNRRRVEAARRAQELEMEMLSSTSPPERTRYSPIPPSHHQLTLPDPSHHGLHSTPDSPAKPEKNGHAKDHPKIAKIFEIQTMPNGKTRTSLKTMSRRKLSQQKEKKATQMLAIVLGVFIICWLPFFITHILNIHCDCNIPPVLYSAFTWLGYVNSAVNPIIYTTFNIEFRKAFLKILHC

For CCCN1CCC[C@H]2c3cc(NS(=O)(=O)c4ccc(C(C)C)cc4)ccc3C[C@@H]21 [4 (SS)-isomer], the “Ki(D2)*/Ki(D3)* selectivity ratio” value [1] was 17 and the Ki [2] was 1.6 nM.
CCCN[C@@H]1Cc2ccc(NS(=O)(=O)c3ccc(C(C)C)cc3)cc2C1 [Example 1, 4-Isopropyl-N—((R)-2-propylamino-indan-5-yl)-benzenesulfonamide] was tested, and the Ki [3] was 257 nM, the “Ki(D2)*/Ki(D3)* selectivity ratio” value [1] was 64 and the Ki [2] was 4 nM.
CCCN(CCC)[C@@H]1Cc2ccc(NS(=O)(=O)c3ccc(C(C)C)cc3)cc2C1.Cl [Example 7, N—((R)-2-Dipropylamino-indan-5-yl)-4-isopropyl-benzenesulfonamide hydrochloride] was tested, and the Ki [3] was 51 nM, the “Ki(D2)*/Ki(D3)* selectivity ratio” value [1] was 195 and the Ki [2] was 0.26 nM.
In the case of CCCN[C@H]1Cc2ccc(NS(=O)(=O)c3ccc(C(C)C)cc3)cc2C1.Cl [Example 2, 4-Isopropyl-N—((S)-2-propylamino-indan-5-yl)-benzenesulfonamide hydrochloride], the Ki [3] is reported as 132 nM, the “Ki(D2)*/Ki(D3)* selectivity ratio” value [1] is reported as 20 and the Ki [2] is reported as 6.7 nM.
For CCCN1CCC[C@@H]2c3cc(NS(=O)(=O)c4ccc(C(C)C)cc4)ccc3C[C@H]21 [4 (RR)-isomer], the “Ki(D2)*/Ki(D3)* selectivity ratio” value [1] was 134 and the Ki [2] was 9.4 nM.
CCCN[C@H]1Cc2ccc(N(C)S(=O)(=O)c3ccc(C(C)C)cc3)cc2C1 [Example 3, 4-isopropyl-N-methyl-N—((S)-2-propylamino-indan-5-yl)-benzenesulfonamide] was tested, and the Ki [3] was 157 nM, the “Ki(D2)*/Ki(D3)* selectivity ratio” value [1] was 22 and the Ki [2] was 7 nM.
